What was measured:
Experiment in all cases: MIC, CLSI broth microdilution
Assay type in all cases: cell-based
[1] = test system: A. baumannii AABA1009 (Fluoroquinolone-resistant); conditions: Table 2
Outline: (§1)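 Broth microdilution per CLSI M7-A7, with serial two-fold compound dilutions in Mueller Hinton Broth mixed 1:1 with inoculum. Colonies from a previous-day agar plate were suspended in saline to a final 5×10^5 CFU/mL. Plates were incubated 20 hours at 35° C. in ambient air.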

[2] = test system: A. baumannii AABA1020 (Fluoroquinolone-resistant); conditions: Table 3
Outline: as §1

[3] = test system: A. baumannii AABA1065 (Fluoroquinolone-susceptible)
Outline: as §1

[4] = test system: E. coli AECO001 (Fluoroquinolone susceptible, ATCC25922)
Outline: as §1

[5] = test system: E. coli AECO002 (Fluoroquinolone susceptible); conditions: Table 3
Outline: as §1

[6] = test system: E. coli AECO066 (Fluoroquinolone-resistant)
Outline: as §1

[7] = test system: E. coli AECO086 (Fluoroquinolone-resistant); conditions: Table 3
Outline: as §1

[8] = test system: P. aeruginosa APAE001 (Fluoroquinolone-susceptible, ATCC27853)
Outline: as §1

[9] = test system: P. aeruginosa APAE002 (Fluoroquinolone susceptible); conditions: Table 3
Outline: as §1

[10] = test system: P. aeruginosa APAE054 (Fluoroquinolone-resistant)
Outline: as §1

[11] = test system: S. aureus ASAU001 (Fluoroquinolone-susceptible, ATCC29213)
Outline: as §1

[12] = test system: S. aureus ASAU002 (Fluoroquinolone-susceptible, ATCC33591 (MRSA)); conditions: Table 3
Outline: as §1

[13] = test system: S. aureus ASAU1031 (Fluoroquinolone-resistant)
Outline: as §1

[14] = test system: S. aureus ASAU1033 (Fluoroquinolone-resistant); conditions: Table 3
Outline: as §1

[15] = test system: S. pneumoniae ASPN001 (Fluoroquinolone-susceptible, ATCC49619)
Outline: as §1

[16] = test system: S. pneumoniae ASPN002 (Fluoroquinolone-susceptible, ATCC10813); conditions: Table 3
Outline: as §1

[17] = test system: S. pneumoniae ASPN1018 (Fluoroquinolone-resistant); conditions: Table 3
Outline: as §1

[18] = test system: S. pneumoniae ASPN1027 (Fluoroquinolone-resistant)
Outline: as §1

SMILES	MIC AABA 1009 [1]	MIC AABA1020 [2]	MIC AABA 1065 ([3]; Table 2)	MIC AABA 1065 ([3]; Table 3)	MIC AECO 001 ([4]; Table 2, 35° C., 20 hours)	MIC AECO 001 ([4]; Table 3)	MIC AECO002 [5]	MIC AECO 066 ([6]; Table 2)	MIC AECO 066 ([6]; Table 3)	MIC AECO086 [7]	MIC APAE 001 ([8]; Table 2)	MIC APAE 001 ([8]; Table 3)	MIC APAE002 [9]	MIC APAE 054 ([10]; Table 2)	MIC APAE 054 ([10]; Table 3)	MIC ASAU 001 ([11]; Table 2)	MIC ASAU 001 ([11]; Table 3)	MIC ASAU002 [12]	MIC ASAU 1031 ([13]; Table 2)	MIC ASAU 1031 ([13]; Table 3)	also measured
NC1CCN2c3c(F)cc4c(=O)c(C(=O)O)cn(C5CC5)c4c3CCCC12.O=C(O)C(F)(F)F [16/18, (7aR,8R)-8-Amino-4-cyclopropyl-12-fluoro-1-oxo-4,5,6,7,7a,8,9,10-octahydro-1H-pyrrolo[1′,2′:1,7]azepino[2,3-h]quinoline-2-carboxylic acid trifluoroacetate]	B (MIC's of greater than 1.0 μg/mL to 8.0 μg/mL = B)	D (MIC's of greater than 8.0 μg/mL = D)	A (MIC's of 1.0 μg/mL or less = A)	A (MIC's of less than 1.0 = A)	A (MIC's of 1.0 μg/mL or less = A)	A (MIC's of less than 1.0 = A)	A (MIC's of less than 1.0 = A)	B (MIC's of greater than 1.0 μg/mL to 8.0 μg/mL = B)	C (MIC's of 2.0 μg/mL to 8.0 μg/mL = C)	C (MIC's of 2.0 μg/mL to 8.0 μg/mL = C)	A (MIC's of 1.0 μg/mL or less = A)	A (MIC's of less than 1.0 = A)	A (MIC's of less than 1.0 = A)	C (MIC's of greater than 8.0 μg/mL = C)	D (MIC's of greater than 8.0 μg/mL = D)	A (MIC's of 1.0 μg/mL or less = A)	A (MIC's of less than 1.0 = A)	A (MIC's of less than 1.0 = A)	B (MIC's of greater than 1.0 μg/mL to 8.0 μg/mL = B)	A (MIC's of less than 1.0 = A)	MIC ASAU1033 [14]: C (MIC's of 2.0 μg/mL to 8.0 μg/mL = C); MIC ASPN 001 ([15]; Table 2): A (MIC's of 1.0 μg/mL or less = A); MIC ASPN 001 ([15]; Table 3): A (MIC's of less than 1.0 = A); MIC ASPN002 [16]: A (MIC's of less than 1.0 = A); MIC ASPN1018 [17]: B (MIC's of 1.0 μg/mL to 2.0 μg/mL = B); MIC ASPN 1027 ([18]; Table 2): B (MIC's of greater than 1.0 μg/mL to 8.0 μg/mL = B); MIC ASPN 1027 ([18]; Table 3): A (MIC's of less than 1.0 = A)
N[C@H]1CCN2c3c(F)cc4c(=O)c(C(=O)O)cn(C5CC5)c4c3C=CC[C@H]12.O=C(O)C(F)(F)F [17/8, (7aR,8S)-8-Amino-4-cyclopropyl-12-fluoro-1-oxo-4,7,7a,8,9,10-hexahydro-1H-pyrrolo[1′,2′:1,7]azepino[2,3-h]quinoline-2-carboxylic acid trifluoroacetate]	C (MIC's of greater than 8.0 μg/mL = C)	D (MIC's of greater than 8.0 μg/mL = D)	A (MIC's of 1.0 μg/mL or less = A)	A (MIC's of less than 1.0 = A)	A (MIC's of 1.0 μg/mL or less = A)	A (MIC's of less than 1.0 = A)	A (MIC's of less than 1.0 = A)	B (MIC's of greater than 1.0 μg/mL to 8.0 μg/mL = B)	C (MIC's of 2.0 μg/mL to 8.0 μg/mL = C)	B (MIC's of 1.0 μg/mL to 2.0 μg/mL = B)	A (MIC's of 1.0 μg/mL or less = A)	A (MIC's of less than 1.0 = A)	A (MIC's of less than 1.0 = A)	C (MIC's of greater than 8.0 μg/mL = C)	D (MIC's of greater than 8.0 μg/mL = D)	A (MIC's of 1.0 μg/mL or less = A)	A (MIC's of less than 1.0 = A)	A (MIC's of less than 1.0 = A)	B (MIC's of greater than 1.0 μg/mL to 8.0 μg/mL = B)	A (MIC's of less than 1.0 = A)	MIC ASAU1033 [14]: C (MIC's of 2.0 μg/mL to 8.0 μg/mL = C); MIC ASPN 001 ([15]; Table 2): A (MIC's of 1.0 μg/mL or less = A); MIC ASPN 001 ([15]; Table 3): A (MIC's of less than 1.0 = A); MIC ASPN002 [16]: A (MIC's of less than 1.0 = A); MIC ASPN1018 [17]: B (MIC's of 1.0 μg/mL to 2.0 μg/mL = B); MIC ASPN 1027 ([18]; Table 2): B (MIC's of greater than 1.0 μg/mL to 8.0 μg/mL = B); MIC ASPN 1027 ([18]; Table 3): A (MIC's of less than 1.0 = A)
N[C@H]1CCN2c3c(F)cc4c(=O)c(C(=O)O)cn(C5CC5)c4c3CCC[C@H]12.O=C(O)C(F)(F)F [17/10, (7aR,8S)-8-Amino-4-cyclopropyl-12-fluoro-1-oxo-4,5,6,7,7a,8,9,10-octahydro-1H-pyrrolo[1′,2′:1,7]azepino-[2,3-h]quinoline-2-carboxylic acid trifluoroacetate]	C (MIC's of greater than 8.0 μg/mL = C)	D (MIC's of greater than 8.0 μg/mL = D)	A (MIC's of 1.0 μg/mL or less = A)	A (MIC's of less than 1.0 = A)	A (MIC's of 1.0 μg/mL or less = A)	A (MIC's of less than 1.0 = A)	A (MIC's of less than 1.0 = A)	C (MIC's of greater than 8.0 μg/mL = C)	D (MIC's of greater than 8.0 μg/mL = D)	D (MIC's of greater than 8.0 μg/mL = D)	B (MIC's of greater than 1.0 μg/mL to 8.0 μg/mL = B)	B (MIC's of 1.0 μg/mL to 2.0 μg/mL = B)	A (MIC's of less than 1.0 = A)	C (MIC's of greater than 8.0 μg/mL = C)	D (MIC's of greater than 8.0 μg/mL = D)	A (MIC's of 1.0 μg/mL or less = A)	A (MIC's of less than 1.0 = A)	A (MIC's of less than 1.0 = A)	B (MIC's of greater than 1.0 μg/mL to 8.0 μg/mL = B)	B (MIC's of 1.0 μg/mL to 2.0 μg/mL = B)	MIC ASAU1033 [14]: D (MIC's of greater than 8.0 μg/mL = D); MIC ASPN 001 ([15]; Table 2): A (MIC's of 1.0 μg/mL or less = A); MIC ASPN 001 ([15]; Table 3): A (MIC's of less than 1.0 = A); MIC ASPN002 [16]: A (MIC's of less than 1.0 = A); MIC ASPN1018 [17]: C (MIC's of 2.0 μg/mL to 8.0 μg/mL = C); MIC ASPN 1027 ([18]; Table 2): B (MIC's of greater than 1.0 μg/mL to 8.0 μg/mL = B); MIC ASPN 1027 ([18]; Table 3): B (MIC's of 1.0 μg/mL to 2.0 μg/mL = B)
